Key:
Assay in all cases: radiometric filter-binding kinase assay, Kinase HotSpot
Conditions in all cases: compound 0.5 µM; ATP 10 µM
[1] = target: MELK (human) (UniProt Q14680)
[2] = target: IGF1R (human) (UniProt P08069)
[3] = target: EPHB4 (human) (UniProt P54760)
[4] = target: PNCK (human) (UniProt Q6P2M8)
[5] = target: STK16 (human) (UniProt O75716)
[6] = target: SLK (human) (UniProt Q9H2G2)
[7] = target: CLK3 (human) (UniProt P49761)
[8] = target: FRK (human) (UniProt P42685)
[9] = target: VRK1 (human) (UniProt Q99986)
[10] = target: SIK2 (human) (UniProt Q9H0K1)
[11] = target: DAPK2 (human) (UniProt Q9UIK4)
[12] = target: CHEK1 (human) (UniProt O14757)
[13] = target: TGFBR2 (human) (UniProt P37173)
[14] = target: CAMK2G (human) (UniProt Q13555)
Chain of CAMK2G (human) (Q13555 whole entry, looked up): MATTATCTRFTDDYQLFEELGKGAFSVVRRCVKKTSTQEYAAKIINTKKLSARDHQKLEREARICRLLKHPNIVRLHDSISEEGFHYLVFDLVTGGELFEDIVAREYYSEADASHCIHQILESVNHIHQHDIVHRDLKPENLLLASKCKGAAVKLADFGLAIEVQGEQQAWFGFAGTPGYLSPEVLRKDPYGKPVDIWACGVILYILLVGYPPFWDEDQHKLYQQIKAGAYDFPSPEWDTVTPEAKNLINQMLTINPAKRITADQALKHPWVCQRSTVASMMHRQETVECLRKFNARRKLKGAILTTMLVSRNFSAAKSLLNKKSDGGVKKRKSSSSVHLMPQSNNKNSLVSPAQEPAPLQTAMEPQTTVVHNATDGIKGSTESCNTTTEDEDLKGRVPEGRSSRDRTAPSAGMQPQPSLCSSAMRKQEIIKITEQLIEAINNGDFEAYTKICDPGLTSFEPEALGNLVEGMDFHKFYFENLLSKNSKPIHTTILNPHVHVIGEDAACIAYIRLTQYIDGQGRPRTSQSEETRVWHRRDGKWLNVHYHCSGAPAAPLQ

[15] = target: MAP4K2 (human) (UniProt Q12851)
[16] = target: MAPKAPK3 (human) (UniProt Q16644)
[17] = target: GSK3A (human) (UniProt P49840)
Chain of GSK3A (human) (P49840 whole entry, looked up): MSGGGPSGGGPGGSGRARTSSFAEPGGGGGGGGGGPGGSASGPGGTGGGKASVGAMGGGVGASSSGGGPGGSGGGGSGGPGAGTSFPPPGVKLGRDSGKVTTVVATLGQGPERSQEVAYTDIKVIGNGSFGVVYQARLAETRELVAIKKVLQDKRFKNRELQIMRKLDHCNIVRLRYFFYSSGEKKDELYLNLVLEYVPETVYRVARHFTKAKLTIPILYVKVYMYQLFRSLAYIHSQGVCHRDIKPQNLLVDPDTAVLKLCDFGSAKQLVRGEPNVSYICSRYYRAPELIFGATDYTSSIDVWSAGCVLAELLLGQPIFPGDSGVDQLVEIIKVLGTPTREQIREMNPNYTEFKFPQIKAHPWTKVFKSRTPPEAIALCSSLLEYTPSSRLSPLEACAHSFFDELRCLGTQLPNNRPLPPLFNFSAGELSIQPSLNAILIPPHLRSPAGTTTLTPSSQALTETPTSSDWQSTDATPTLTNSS

[18] = target: NUAK1 (human) (UniProt O60285)
[19] = target: TAOK1 (human) (UniProt Q7L7X3)
[20] = target: AXL (human) (UniProt P30530)
Chain of AXL (human) (P30530 whole entry, looked up): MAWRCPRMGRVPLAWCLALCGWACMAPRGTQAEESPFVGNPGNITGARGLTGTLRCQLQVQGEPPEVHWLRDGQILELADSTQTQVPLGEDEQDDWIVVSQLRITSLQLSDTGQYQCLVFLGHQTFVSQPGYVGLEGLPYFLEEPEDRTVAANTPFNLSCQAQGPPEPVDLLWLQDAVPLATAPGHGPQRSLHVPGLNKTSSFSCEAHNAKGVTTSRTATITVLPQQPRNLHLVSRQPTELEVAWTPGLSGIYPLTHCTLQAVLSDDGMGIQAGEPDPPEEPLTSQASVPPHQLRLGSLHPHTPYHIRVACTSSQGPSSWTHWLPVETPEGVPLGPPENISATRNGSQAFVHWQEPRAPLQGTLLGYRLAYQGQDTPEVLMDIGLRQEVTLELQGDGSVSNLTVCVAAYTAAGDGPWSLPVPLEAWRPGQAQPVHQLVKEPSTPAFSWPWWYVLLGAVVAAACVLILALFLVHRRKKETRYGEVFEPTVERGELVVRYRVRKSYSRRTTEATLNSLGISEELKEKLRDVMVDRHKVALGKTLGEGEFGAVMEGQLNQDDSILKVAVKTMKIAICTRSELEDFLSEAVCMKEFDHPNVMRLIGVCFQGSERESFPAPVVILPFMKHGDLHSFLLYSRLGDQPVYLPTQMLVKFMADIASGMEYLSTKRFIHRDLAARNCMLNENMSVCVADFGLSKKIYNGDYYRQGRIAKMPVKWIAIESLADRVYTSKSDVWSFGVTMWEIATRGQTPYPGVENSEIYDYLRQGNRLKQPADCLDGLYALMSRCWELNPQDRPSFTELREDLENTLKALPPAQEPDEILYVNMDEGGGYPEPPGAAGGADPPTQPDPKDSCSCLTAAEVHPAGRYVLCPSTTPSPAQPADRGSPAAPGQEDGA

[21] = target: TSSK1B (human) (UniProt Q9BXA7)
[22] = target: SRMS (human) (UniProt Q9H3Y6)
Chain of SRMS (human) (Q9H3Y6 whole entry, looked up): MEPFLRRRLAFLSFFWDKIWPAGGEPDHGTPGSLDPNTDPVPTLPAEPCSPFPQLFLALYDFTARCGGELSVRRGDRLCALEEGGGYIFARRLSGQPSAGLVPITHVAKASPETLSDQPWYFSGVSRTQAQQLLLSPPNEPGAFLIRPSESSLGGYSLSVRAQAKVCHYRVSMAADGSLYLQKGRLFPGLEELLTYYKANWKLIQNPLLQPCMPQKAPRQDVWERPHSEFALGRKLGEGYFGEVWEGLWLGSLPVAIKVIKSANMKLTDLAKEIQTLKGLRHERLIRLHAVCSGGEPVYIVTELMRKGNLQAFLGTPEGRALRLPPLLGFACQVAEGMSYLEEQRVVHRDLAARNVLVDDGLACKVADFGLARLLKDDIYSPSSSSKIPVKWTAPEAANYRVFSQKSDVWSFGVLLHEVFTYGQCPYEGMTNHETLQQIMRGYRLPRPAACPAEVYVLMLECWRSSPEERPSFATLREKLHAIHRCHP

[23] = target: NTRK2 (human) (UniProt Q16620)
[24] = target: PRKCZ (human) (UniProt Q05513)
[25] = target: HIPK3 (human) (UniProt Q9H422)
[26] = target: IKBKB (human) (UniProt O14920)
[27] = target: CAMK1G (human) (UniProt Q96NX5)
[28] = target: AURKB (human) (UniProt Q96GD4)
[29] = target: CHEK2 (human) (UniProt O96017)
[30] = target: NEK11 (human) (UniProt Q8NG66)
[31] = target: MAP3K5 (human) (UniProt Q99683)
[32] = target: SGK2 (human) (UniProt Q9HBY8)
[33] = target: JAK1 JH1 catalytic (human) (UniProt P23458)
[34] = target: CSNK1G2 (human) (UniProt P78368)
Chain of CSNK1G2 (human) (P78368 whole entry, looked up): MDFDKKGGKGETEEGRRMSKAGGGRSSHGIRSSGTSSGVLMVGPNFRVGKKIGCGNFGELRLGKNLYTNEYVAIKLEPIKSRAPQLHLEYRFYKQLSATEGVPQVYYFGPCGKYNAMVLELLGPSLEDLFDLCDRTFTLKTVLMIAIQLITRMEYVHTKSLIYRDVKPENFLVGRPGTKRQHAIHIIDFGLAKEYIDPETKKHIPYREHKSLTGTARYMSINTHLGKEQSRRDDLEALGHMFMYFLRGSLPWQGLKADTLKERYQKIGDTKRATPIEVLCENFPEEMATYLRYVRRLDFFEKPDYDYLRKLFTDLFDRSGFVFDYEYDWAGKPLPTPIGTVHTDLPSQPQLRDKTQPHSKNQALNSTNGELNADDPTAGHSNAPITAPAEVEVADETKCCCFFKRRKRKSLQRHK

[35] = target: MAP3K2 (human) (UniProt Q9Y2U5)
[36] = target: PAK3 (human) (UniProt O75914)
Chain of PAK3 (human) (O75914 whole entry, looked up): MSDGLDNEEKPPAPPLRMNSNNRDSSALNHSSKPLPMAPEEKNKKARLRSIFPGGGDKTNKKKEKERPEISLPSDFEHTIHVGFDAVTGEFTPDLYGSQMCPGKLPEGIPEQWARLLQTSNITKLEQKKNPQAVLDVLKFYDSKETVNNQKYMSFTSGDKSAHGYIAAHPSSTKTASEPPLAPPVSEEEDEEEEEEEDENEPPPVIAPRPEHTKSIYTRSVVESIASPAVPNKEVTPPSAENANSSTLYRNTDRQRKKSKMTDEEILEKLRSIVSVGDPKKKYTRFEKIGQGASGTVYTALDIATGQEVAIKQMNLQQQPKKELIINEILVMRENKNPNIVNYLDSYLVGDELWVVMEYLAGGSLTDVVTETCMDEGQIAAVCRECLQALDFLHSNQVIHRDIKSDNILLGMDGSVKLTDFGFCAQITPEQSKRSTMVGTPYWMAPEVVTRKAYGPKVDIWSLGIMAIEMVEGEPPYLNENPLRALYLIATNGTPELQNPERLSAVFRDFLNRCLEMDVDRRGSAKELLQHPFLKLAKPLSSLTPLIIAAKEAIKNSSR

[37] = target: MAP3K7 TAB1 (human) (UniProt O43318+Q15750)
Chain of MAP3K7 TAB1 (human) (O43318 whole entry, looked up): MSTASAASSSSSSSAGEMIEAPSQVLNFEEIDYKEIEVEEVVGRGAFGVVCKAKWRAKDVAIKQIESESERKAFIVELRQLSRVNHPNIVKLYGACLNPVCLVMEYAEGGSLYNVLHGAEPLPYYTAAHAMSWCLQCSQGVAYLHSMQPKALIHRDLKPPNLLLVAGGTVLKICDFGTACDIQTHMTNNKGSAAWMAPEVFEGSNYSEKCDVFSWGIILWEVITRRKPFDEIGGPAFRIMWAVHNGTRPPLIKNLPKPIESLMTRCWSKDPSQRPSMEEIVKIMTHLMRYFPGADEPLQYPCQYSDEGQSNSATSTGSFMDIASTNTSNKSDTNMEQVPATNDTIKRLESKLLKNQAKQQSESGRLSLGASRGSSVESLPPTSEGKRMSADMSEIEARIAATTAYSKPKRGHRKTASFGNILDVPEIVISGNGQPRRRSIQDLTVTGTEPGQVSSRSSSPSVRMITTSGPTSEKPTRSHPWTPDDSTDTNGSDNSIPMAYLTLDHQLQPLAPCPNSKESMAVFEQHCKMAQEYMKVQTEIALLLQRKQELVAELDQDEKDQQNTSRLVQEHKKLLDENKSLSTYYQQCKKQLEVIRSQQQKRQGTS
Chain of MAP3K7 TAB1 (human) (Q15750 whole entry, looked up): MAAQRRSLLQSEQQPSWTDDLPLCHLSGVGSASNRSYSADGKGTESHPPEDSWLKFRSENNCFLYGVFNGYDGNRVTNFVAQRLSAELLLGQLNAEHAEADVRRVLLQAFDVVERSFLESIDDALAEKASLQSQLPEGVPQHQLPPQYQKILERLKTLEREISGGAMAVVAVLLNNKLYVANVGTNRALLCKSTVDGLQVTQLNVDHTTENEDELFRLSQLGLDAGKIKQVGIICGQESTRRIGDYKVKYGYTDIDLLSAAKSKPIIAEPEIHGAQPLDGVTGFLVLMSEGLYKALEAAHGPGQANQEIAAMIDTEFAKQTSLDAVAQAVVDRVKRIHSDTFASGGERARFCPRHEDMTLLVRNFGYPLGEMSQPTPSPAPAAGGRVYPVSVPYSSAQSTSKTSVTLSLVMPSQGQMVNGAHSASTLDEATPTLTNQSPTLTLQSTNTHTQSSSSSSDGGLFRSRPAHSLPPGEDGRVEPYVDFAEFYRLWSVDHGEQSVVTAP

[38] = target: MAPK10 (human) (UniProt P53779)
[39] = target: RIPK2 (human) (UniProt O43353)
[40] = target: FLT3 (human) (UniProt P36888)
[41] = target: TBK1 (human) (UniProt Q9UHD2)
[42] = target: SYK (human) (UniProt P43405)

Chain of PNCK (human) (Q6P2M8 whole entry, looked up): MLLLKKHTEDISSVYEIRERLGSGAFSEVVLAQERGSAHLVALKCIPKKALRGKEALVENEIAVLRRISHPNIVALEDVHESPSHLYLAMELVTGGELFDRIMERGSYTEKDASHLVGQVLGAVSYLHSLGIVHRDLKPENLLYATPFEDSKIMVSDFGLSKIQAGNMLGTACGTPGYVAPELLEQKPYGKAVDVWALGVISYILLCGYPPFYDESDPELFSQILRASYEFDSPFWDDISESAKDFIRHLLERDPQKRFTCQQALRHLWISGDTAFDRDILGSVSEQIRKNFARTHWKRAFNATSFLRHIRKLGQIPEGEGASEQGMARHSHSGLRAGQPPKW

## Nc1nccc(-c2c(-c3ccc(F)cc3)ncn2C2CCNCC2)n1
[1]
  residual activity: 100%
[2]
  residual activity: 104%
[3]
  residual activity: 91.5%
[4]
  residual activity: 94.3%
[5]
  residual activity: 108%
[6]
  residual activity: 99.9%
[7]
  residual activity: 102%
[8]
  residual activity: 95.4%
[9]
  residual activity: 83.4%
[10]
  residual activity: 64.7%
[11]
  residual activity: 94.1%
[12]
  residual activity: 99.8%
[13]
  residual activity: 119%
[14]
  residual activity: 93%
[15]
  residual activity: 102%
[16]
  residual activity: 99.4%
[17]
  residual activity: 97.5%
[18]
  residual activity: 98.4%
[19]
  residual activity: 92.7%
[20]
  residual activity: 102%
[21]
  residual activity: 106%
[22]
  residual activity: 97.5%
[23]
  residual activity: 103%
[24]
  residual activity: 106%
[25]
  residual activity: 97.6%
[26]
  residual activity: 104%
[27]
  residual activity: 99.3%
[28]
  residual activity: 103%
[29]
  residual activity: 101%
[30]
  residual activity: 105%
[31]
  residual activity: 102%
[32]
  residual activity: 96.9%
[33]
  residual activity: 104%
[34]
  residual activity: 119%
[35]
  residual activity: 94%
[36]
  residual activity: 105%
[37]
  residual activity: 96.9%
[38]
  residual activity: 105%
[39]
  residual activity: 77.2%
[40]
  residual activity: 90.3%
[41]
  residual activity: 102%
[42]
  residual activity: 98%

## COc1cc2ncc(-c3ccccc3)nc2cc1OC
[1]
  residual activity: 88.9%
[2]
  residual activity: 91.1%
[3]
  residual activity: 86.4%
[4]
  residual activity: 98.2%
[5]
  residual activity: 93.5%
[6]
  residual activity: 97.3%
[7]
  residual activity: 90.1%
[8]
  residual activity: 99.3%
[9]
  residual activity: 106%
[10]
  residual activity: 93.1%
[11]
  residual activity: 97.3%
[12]
  residual activity: 94.7%
[13]
  residual activity: 75%
[14]
  residual activity: 94.5%
[15]
  residual activity: 99.2%
[16]
  residual activity: 86.7%
[17]
  residual activity: 97.9%
[18]
  residual activity: 85.6%
[19]
  residual activity: 104%
[20]
  residual activity: 95.2%
[21]
  residual activity: 94.5%
[22]
  residual activity: 102%
[23]
  residual activity: 99.5%
[24]
  residual activity: 96.3%
[25]
  residual activity: 97.7%
[26]
  residual activity: 101%
[27]
  residual activity: 95.1%
[28]
  residual activity: 74.4%
[29]
  residual activity: 94.2%
[30]
  residual activity: 114%
[31]
  residual activity: 108%
[32]
  residual activity: 95.6%
[33]
  residual activity: 91.5%
[34]
  residual activity: 84%
[35]
  residual activity: 92.5%
[36]
  residual activity: 94.7%
[37]
  residual activity: 92.8%
[38]
  residual activity: 90.3%
[39]
  residual activity: 90.3%
[40]
  residual activity: 65.9%
[41]
  residual activity: 87.2%
[42]
  residual activity: 92.5%

## O=C1Nc2ccccc2/C1=C1/Nc2ccccc2/C1=N\OCCC(O)CO (stereo unspecified)
[1]
  residual activity: 13.1%
[2]
  residual activity: 39.1%
[3]
  residual activity: 72.2%
[4]
  residual activity: 101%
[5]
  residual activity: 12.7%
[6]
  residual activity: 59.9%
[7]
  residual activity: 16.1%
[8]
  residual activity: 49.7%
[9]
  residual activity: 88.3%
[10]
  residual activity: 75.1%
[11]
  residual activity: 104%
[12]
  residual activity: 67%
[13]
  residual activity: 119%
[14]
  residual activity: 35.3%
[15]
  residual activity: 51.7%
[16]
  residual activity: 98.9%
[17]
  residual activity: 7.31%
[18]
  residual activity: 2.81%
[19]
  residual activity: 98.2%
[20]
  residual activity: 42.7%
[21]
  residual activity: 76.6%
[22]
  residual activity: 102%
[23]
  residual activity: 1.62%
[24]
  residual activity: 98.5%
[25]
  residual activity: 66.2%
[26]
  residual activity: 90.5%
[27]
  residual activity: 102%
[28]
  residual activity: 27.4%
[29]
  residual activity: 27%
[30]
  residual activity: 92.3%
[31]
  residual activity: 91.2%
[32]
  residual activity: 75.8%
[33]
  residual activity: 25.9%
[34]
  residual activity: 85.2%
[35]
  residual activity: 60.6%
[36]
  residual activity: 73.8%
[37]
  residual activity: 50.5%
[38]
  residual activity: 103%
[39]
  residual activity: 62.8%
[40]
  residual activity: 1.07%
[41]
  residual activity: 29.9%
[42]
  residual activity: 38.6%

Source: the kinase profiling compilation of Christmann-Franck et al. (2016)
